Experimental data taken from ChEMBL document CHEMBL5356958, “Discovery of a Highly Potent and Selective MYOF Inhibitor with Improved Water Solubility for the Treatment of Gastric Cancer” (J Med Chem, 2023).
Values after ≈ are worked out from the molar mass of the structure shown. Active and inactive are the calls of the source. The rule behind the calls is not given here.

Columns and labels:
SK-HEP1 = test: Antiproliferative activity against human SK-HEP1 cells incubated for 48 hrs by SRB assay; assay type: functional, cell-based; details: SK-HEP1, 48 h
MGC-803 [1] = test: Antiproliferative activity against human MGC-803 cells incubated for 48 hrs by SRB assay; assay type: functional, cell-based; details: MGC-803, 48 h
MKN-45 [2] = test: Antitumor activity against human MKN-45 cells xenografted in BALB/c mouse assessed as tumor growth inhibition at 30 mg/kg/day, ip measured every 3 days for 21 days; assay type: functional; details: MKN-45, 504 h, time 21 day, read-out: TGI
[3] = AUC(0 to t) in ICR mouse at 10 mg/kg, po; assay type: ADME, organism-based; set-up: dose 10 mg/kg, route po; details: in vivo
MKN-45 [4] = test: Induction of apoptosis in human MKN-45 cells assessed as late apoptotic cells at 100 nM incubated for 48 hrs by Annexin V-FITC/PI staining based flow cytometry analysis (reference value: 2.6%); assay type: functional
CWR22R = test: Antiproliferative activity against human 22Rv1 cells incubated for 48 hrs by SRB assay; assay type: functional, cell-based; details: 22Rv1, 48 h
hERG (KCNH2) = hERG (KCNH2) (Homo sapiens, UniProt Q12809); test: Inhibition of human ERG at 40 uM relative to control; assay type: toxicity
MGC-803 [5] = test: Antiinvasive activity against human MGC-803 cells incubated for 24 hrs by crystal violet staining based inverted microscopic analysis; assay type: functional, cell-based
MKN-45 [6] = test: Inhibition of epithelial mesenchymal transition in human MKN-45 cells assessed as downregulation in vimentin level by Western blotting analysis; assay type: functional, cell-based
[7] = Toxicity in BALB/c mouse assessed as change in liver morphology at 15 to 30 mg/kg, ip measured every 3 days for 21 days by HE staining based assay; assay type: organism-based; details: in vivo, 504 h, dose 15-30 mg/kg, time 21 day
CYP1A = CYP1A (Homo sapiens, UniProt P04798+P05177); test: Inhibition of CYP1A in human liver microsomes; assay type: ADME, Microsome
[8] = Volume of distribution at steady state in ICR mouse at 1 mg/kg, iv; assay type: ADME, organism-based; details: in vivo, read-out: Vdss
MKN-45 [9] = test: Induction of apoptosis in human MKN-45 cells assessed as early apoptotic cells at 200 nM incubated for 48 hrs by Annexin V-FITC/PI staining based flow cytometry analysis (reference value: 0.5%); assay type: functional
BGC-823 = test: Antiproliferative activity against human BGC-823 cells incubated for 48 hrs by SRB assay; assay type: functional, cell-based; details: BGC-823, 48 h
[10] = Mean residence time in ICR mouse at 1 mg/kg, iv; assay type: ADME, organism-based; details: in vivo
[11] = Half life in ICR mouse at 10 mg/kg, po; assay type: ADME, organism-based; details: in vivo
ES-2 = test: Antiproliferative activity against human ES2 cells incubated for 48 hrs by SRB assay; assay type: functional, cell-based; details: ES-2, 48 h
MKN-45 [12] = test: Induction of apoptosis in human MKN-45 cells assessed as late apoptotic cells at 400 nM incubated for 48 hrs by Annexin V-FITC/PI staining based flow cytometry analysis (reference value: 2.6%); assay type: functional
MKN-45 [13] = test: Induction of apoptosis in human MKN-45 cells assessed as late apoptotic cells at 200 nM incubated for 48 hrs by Annexin V-FITC/PI staining based flow cytometry analysis (reference value: 2.6%); assay type: functional
MKN-45 [14] = test: Inhibition of epithelial mesenchymal transition in human MKN-45 cells assessed as downregulation in N-cadherin level by Western blotting analysis; assay type: functional, cell-based
[15] = Oral bioavailability in ICR mouse at 10 mg/kg; assay type: ADME, organism-based; details: in vivo
Cytochrome P450 2C9 = Cytochrome P450 2C9 (Homo sapiens, UniProt P11712); test: Inhibition of CYP2C9 in human liver microsomes; assay type: ADME, Microsome
Myoferlin = Myoferlin (Homo sapiens, UniProt Q9NZM1); test: Binding affinity to MYOF C2D (unknown origin) expressed in Escherichia coli BL21(DE3) by SPR analysis
MKN-45 [16] = test: Antiproliferative activity against MYOF knocked down human MKN-45 cells incubated for 48 hrs by SRB assay; assay type: functional, cell-based
[17] = Half life in ICR mouse at 1 mg/kg, iv; assay type: ADME, organism-based; details: in vivo
SGC-7901 = test: Antiproliferative activity against human SGC-7901 cells incubated for 48 hrs by SRB assay; assay type: functional, cell-based; details: SGC-7901, 48 h
[18] = Cmax in ICR mouse at 1 mg/kg, iv; assay type: ADME, organism-based; set-up: dose 1 mg/kg, route iv; details: in vivo
[19] = AUC(0 to infinity) in ICR mouse at 10 mg/kg, po; assay type: ADME, organism-based; set-up: dose 10 mg/kg, route po; details: in vivo
MFC = test: Antiproliferative activity against MFC cells incubated for 48 hrs by SRB assay; assay type: functional, cell-based; details: Mus musculus
MKN-45 [20] = test: Induction of apoptosis in human MKN-45 cells assessed as early apoptotic cells at 100 nM incubated for 48 hrs by Annexin V-FITC/PI staining based flow cytometry analysis (reference value: 0.5%); assay type: functional
[21] = Toxicity in BALB/c mouse assessed as change in body weight at 15 to 30 mg/kg, ip measured every 3 days for 21 days; assay type: organism-based; details: in vivo, 504 h, dose 15-30 mg/kg, time 21 day
[22] = Aqueous solubility of compound in PBS at pH 2; assay type: physicochemical
Cytochrome P450 2C19 = Cytochrome P450 2C19 (Homo sapiens, UniProt P33261); test: Inhibition of CYP2C19 in human liver microsomes; assay type: ADME, Microsome
MKN-45 [23] = test: Induction of apoptosis in human MKN-45 cells assessed as late apoptotic cells at 800 nM incubated for 48 hrs by Annexin V-FITC/PI staining based flow cytometry analysis (reference value: 2.6%); assay type: functional
MKN-45 [24] = test: Antiproliferative activity against human MKN-45 cells incubated for 48 hrs by SRB assay; assay type: functional, cell-based; details: MKN-45, 48 h
[25] = AUC(0 to infinity) in ICR mouse at 1 mg/kg, iv; assay type: ADME, organism-based; set-up: dose 1 mg/kg, route iv; details: in vivo
[26] = Clearance in ICR mouse at 1 mg/kg, iv; assay type: ADME, organism-based; details: in vivo
[27] = Aqueous solubility of compound in PBS at pH 9; assay type: physicochemical
[28] = biological target: Voltage-gated inwardly rectifying potassium channel KCNH2 (Homo sapiens, UniProt Q12809); test: Inhibition of human ERG; assay type: toxicity
Cytochrome P450 3A4 = Cytochrome P450 3A4 (Homo sapiens, UniProt P08684); test: Inhibition of CYP3A4 in human liver microsomes; assay type: ADME, Microsome
MKN-45 [29] = test: Antitumor activity against human MKN-45 cells xenografted in BALB/c mouse assessed as tumor growth inhibition at 15 mg/kg/day, ip measured every 3 days for 21 days; assay type: functional; details: MKN-45, 504 h, time 21 day, read-out: TGI
[30] = biological target: Serine/threonine-protein kinase AKT (Homo sapiens) (UniProt P31751+Q9Y243+P31749); test: Inhibition of AKT phosphorylation in human MKN-45 cells by Western blot analysis; assay type: cell-based
[31] = Antiproliferative activity against HAF cells incubated for 48 hrs by SRB assay; assay type: functional, cell-based; details: Homo sapiens
AGS = test: Antiproliferative activity against human AGS cells incubated for 48 hrs by SRB assay; assay type: functional, cell-based
MKN-45 [32] = test: Induction of apoptosis in human MKN-45 cells assessed as early apoptotic cells at 400 nM incubated for 48 hrs by Annexin V-FITC/PI staining based flow cytometry analysis (reference value: 0.5%); assay type: functional
Cytochrome P450 2D6 = Cytochrome P450 2D6 (Homo sapiens, UniProt P10635); test: Inhibition of CYP2D6 in human liver microsomes; assay type: ADME, Microsome
[33] = Aqueous solubility of compound in PBS at pH 7.4; assay type: physicochemical

Sequence of Cytochrome P450 2C9 (P11712 whole entry): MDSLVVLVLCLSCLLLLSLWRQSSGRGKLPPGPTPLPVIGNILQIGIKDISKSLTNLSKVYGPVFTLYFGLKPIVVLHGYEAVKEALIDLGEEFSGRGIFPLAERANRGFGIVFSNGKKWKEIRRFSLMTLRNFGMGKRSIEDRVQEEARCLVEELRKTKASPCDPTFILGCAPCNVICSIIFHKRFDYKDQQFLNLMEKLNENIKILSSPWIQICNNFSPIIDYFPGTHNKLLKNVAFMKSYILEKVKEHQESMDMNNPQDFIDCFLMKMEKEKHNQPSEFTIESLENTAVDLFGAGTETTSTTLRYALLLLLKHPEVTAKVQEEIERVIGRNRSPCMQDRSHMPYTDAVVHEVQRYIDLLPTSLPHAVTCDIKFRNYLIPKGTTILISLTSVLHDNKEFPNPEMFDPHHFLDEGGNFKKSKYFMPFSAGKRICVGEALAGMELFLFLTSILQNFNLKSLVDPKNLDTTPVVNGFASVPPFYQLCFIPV
Sequence of Myoferlin (Q9NZM1 whole entry): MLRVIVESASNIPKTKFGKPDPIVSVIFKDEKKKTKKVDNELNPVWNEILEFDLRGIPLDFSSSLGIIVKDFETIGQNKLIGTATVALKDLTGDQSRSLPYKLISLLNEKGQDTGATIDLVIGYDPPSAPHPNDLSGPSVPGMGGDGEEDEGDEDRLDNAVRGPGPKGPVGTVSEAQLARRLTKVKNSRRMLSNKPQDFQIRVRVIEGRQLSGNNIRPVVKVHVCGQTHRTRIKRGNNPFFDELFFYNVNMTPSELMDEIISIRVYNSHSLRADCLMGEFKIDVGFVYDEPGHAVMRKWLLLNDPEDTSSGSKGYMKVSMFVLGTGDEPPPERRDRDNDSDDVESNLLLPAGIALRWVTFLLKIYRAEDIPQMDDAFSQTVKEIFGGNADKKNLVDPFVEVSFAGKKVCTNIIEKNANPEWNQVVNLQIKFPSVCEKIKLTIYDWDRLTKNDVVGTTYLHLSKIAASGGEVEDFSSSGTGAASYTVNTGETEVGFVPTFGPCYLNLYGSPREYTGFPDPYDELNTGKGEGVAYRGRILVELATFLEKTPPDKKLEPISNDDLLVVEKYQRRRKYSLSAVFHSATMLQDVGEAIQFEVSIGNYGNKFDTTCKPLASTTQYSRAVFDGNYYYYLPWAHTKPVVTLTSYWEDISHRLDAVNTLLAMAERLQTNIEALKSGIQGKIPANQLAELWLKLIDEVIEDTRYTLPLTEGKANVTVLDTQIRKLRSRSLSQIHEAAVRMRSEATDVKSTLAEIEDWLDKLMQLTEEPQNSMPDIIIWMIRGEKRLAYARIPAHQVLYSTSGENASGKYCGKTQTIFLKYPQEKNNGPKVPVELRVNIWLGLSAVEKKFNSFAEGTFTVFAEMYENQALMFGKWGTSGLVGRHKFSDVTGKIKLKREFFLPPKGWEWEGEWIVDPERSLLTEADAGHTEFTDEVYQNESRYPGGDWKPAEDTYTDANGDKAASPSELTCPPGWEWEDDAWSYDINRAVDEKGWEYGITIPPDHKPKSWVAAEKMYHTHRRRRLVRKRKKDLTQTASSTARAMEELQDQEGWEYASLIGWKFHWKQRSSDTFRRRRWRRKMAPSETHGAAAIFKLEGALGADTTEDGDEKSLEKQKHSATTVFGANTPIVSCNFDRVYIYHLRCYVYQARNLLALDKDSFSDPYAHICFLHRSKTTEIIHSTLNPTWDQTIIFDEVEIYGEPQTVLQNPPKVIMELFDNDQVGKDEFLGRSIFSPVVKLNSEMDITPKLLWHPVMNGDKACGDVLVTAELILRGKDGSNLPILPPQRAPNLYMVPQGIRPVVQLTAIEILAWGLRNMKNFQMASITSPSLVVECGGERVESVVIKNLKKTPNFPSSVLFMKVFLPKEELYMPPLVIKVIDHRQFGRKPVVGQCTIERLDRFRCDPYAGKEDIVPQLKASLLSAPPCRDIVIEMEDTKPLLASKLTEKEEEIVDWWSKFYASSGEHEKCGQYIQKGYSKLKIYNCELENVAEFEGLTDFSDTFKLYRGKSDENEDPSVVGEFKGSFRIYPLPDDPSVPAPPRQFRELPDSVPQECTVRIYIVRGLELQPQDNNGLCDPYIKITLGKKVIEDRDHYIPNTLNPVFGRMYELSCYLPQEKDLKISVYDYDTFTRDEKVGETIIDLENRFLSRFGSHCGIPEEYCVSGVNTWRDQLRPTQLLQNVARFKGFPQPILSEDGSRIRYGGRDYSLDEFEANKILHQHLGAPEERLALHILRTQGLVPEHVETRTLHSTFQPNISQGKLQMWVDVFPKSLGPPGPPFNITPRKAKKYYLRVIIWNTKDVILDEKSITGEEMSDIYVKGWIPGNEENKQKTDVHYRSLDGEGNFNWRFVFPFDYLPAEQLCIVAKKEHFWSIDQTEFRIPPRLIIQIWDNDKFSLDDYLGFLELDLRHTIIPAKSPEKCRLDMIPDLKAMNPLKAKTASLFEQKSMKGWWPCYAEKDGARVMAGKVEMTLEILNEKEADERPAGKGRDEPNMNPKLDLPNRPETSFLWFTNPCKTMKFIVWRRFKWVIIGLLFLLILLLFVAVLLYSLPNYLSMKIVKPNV
Sequence of hERG (KCNH2) (Q12809 whole entry): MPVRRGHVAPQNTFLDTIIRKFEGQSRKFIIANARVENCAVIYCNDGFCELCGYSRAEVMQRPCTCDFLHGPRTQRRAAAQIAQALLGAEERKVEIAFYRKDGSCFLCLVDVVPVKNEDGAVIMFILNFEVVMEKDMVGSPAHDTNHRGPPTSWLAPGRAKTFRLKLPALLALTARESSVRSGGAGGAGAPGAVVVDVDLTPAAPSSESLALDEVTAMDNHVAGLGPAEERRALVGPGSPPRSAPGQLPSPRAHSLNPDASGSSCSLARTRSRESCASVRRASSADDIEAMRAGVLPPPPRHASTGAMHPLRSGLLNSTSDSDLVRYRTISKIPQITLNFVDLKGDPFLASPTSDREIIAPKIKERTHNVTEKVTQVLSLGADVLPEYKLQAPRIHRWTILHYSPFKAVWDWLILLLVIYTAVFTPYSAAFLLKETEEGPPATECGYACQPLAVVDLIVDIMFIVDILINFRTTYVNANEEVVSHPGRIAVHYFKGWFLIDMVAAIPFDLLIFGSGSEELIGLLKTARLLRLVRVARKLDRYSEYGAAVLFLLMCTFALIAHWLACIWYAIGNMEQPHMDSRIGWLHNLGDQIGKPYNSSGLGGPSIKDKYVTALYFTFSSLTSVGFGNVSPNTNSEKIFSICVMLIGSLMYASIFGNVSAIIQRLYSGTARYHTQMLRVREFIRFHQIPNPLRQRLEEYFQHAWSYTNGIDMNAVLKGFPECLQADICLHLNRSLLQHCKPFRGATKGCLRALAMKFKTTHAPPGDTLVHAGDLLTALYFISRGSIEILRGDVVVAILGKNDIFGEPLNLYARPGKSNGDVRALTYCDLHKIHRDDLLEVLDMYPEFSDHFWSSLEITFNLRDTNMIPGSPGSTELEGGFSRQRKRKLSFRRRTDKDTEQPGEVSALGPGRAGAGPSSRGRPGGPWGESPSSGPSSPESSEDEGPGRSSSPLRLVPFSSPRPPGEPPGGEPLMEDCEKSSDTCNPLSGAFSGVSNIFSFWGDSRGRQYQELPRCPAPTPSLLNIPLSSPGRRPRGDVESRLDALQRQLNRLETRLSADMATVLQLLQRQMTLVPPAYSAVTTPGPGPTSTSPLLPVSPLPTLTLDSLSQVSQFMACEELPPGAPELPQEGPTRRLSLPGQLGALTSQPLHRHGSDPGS
Sequence of Voltage-gated inwardly rectifying potassium channel KCNH2 (Q12809 whole entry): as above

- IC50 (SK-HEP1): 750 nM
- IC50 (MGC-803 [1]): 160 nM
- AUC(0-t) [3]: 4920 ng·h/mL
- IC50 (MGC-803 [5]; MGC-803, 24 h): 60 nM
- IC50 (CYP1A): > 50000 nM
- Vd [8]: 0.377 L/kg
- IC50 (BGC-823): 290 nM
- MRT [10]: 17.2 min
- half-life [11]: 38.4 min
- bioavailability [15]: 65.5%
- IC50 (Cytochrome P450 2C9): 14700 nM
- Kd (Myoferlin): 170 nM
- half-life [17]: 13.2 min
- IC50 (SGC-7901): 440 nM
- Cmax [18]: 1910 ng/mL
- AUC(0-inf) [19]: 4940 ng·h/mL
- solubility [22]: 1310 µM (≈ 582 µg/mL)
- IC50 (Cytochrome P450 2C19): 18800 nM
- IC50 (MKN-45 [24]): 140 nM
- AUC(0-inf) [25]: 762 ng·h/mL
- clearance [26]: 22 mL/min/kg
- solubility [27]: 258 µM (≈ 115 µg/mL)
- IC50 (Cytochrome P450 3A4): 35100 nM
- inhibition [30]: Active
- IC50 (AGS): 460 nM
- IC50 (Cytochrome P450 2D6): > 50000 nM
- solubility [33]: 272 µM (≈ 121 µg/mL)
Structure (SMILES): CCc1nc(-c2ccc(OC)cc2)n(-c2cccc(C(=O)NCCCCn3nccn3)c2)n1
- inhibition in vivo at 30 mg/kg/day (MKN-45 [2]): 68.5%
- Activity (MKN-45 [4]): 2.8%
- IC50 (CWR22R): > 10000 nM
- inhibition at 40 µM (hERG (KCNH2)): 46.6%
- Activity (MGC-803 [5]): Dose-Dependent Effect
- inhibition (MKN-45 [6]): Dose-Dependent Effect
- Activity [7]: Non-Toxic
- Activity (MKN-45 [9]): 1%
- IC50 (ES-2): 280 nM
- Activity (MKN-45 [12]): 37.6%
- Activity (MKN-45 [13]): 4.7%
- inhibition (MKN-45 [14]): Dose-Dependent Effect
- Activity (MKN-45 [16]): inactive
- IC50 (MFC): > 10000 nM
- Activity (MKN-45 [20]): 0.6%
- Activity [21]: Non-Toxic
- Activity (MKN-45 [23]): 40.6%
- IC50 [28]: > 40000 nM
- inhibition in vivo at 15 mg/kg/day (MKN-45 [29]): 55.1%
- IC50 [31]: > 10000 nM
- Activity (MKN-45 [32]): 12.6%
